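Five concentrations, 48 hours, 96-well plates. GI50 = concentration required for 50% inhibition of growth.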 The source made the active and inactive calls. Rule as the data show it: active = GI50 up to about 1.1 µM and inactive = higher.
Assays:
Assay in all cases: NCI tumour cell line growth inhibition, 48 h
[1] = tested on: COLO 205
[2] = tested on: SK-OV-3
[3] = tested on: OVCAR-4
[4] = tested on: NCI-H522
[5] = tested on: KM12
[6] = tested on: UACC-62
[7] = tested on: HT-29
[8] = tested on: SW-620
[9] = tested on: SF-268
[10] = tested on: DMS-273
[11] = tested on: SK-MEL-28
[12] = tested on: HOP-62
[13] = tested on: KM-20L2
[14] = tested on: ACHN
[15] = tested on: MOLT-4
[16] = tested on: OVCAR-3
[17] = tested on: M19-MEL
[18] = tested on: HCT-116
[19] = tested on: K562
[20] = tested on: IGROV-1

Measured: GI50

CCOC(=O)C(C#N)(Cc1c[nH]c2ccccc12)NC(C)=O (stereo not given)
inactive: [1] > 100 µM | [2] > 100 µM | [3] > 100 µM | [4] > 100 µM | [5] > 100 µM | [6] > 100 µM | [7] > 100 µM | [8] > 100 µM | [9] > 100 µM | [10] > 100 µM | [11] > 100 µM | [12] > 100 µM | [13] > 100 µM | [14] > 100 µM | [15] > 100 µM | [16] > 100 µM | [17] > 100 µM | [18] > 100 µM | [19] > 100 µM | [20] > 100 µM
